Experimental data published in patent publication US20260250290A1 (BRISTOL-MYERS SQUIBB COMPANY, priority 2023, published 2026).
pIC50: −log10 of the molar value. Where a name gives a salt, the structure may show the parent alone.

target: T1, full length SGK1 (Homo sapiens, UniProt O00141); test: SGK1 inhibition Assay A (Caliper LabChip electrophoretic separation of fluorescent peptide substrate and phosphorylated product); assay type: biochemical; conditions: Assay A; 20 μM ATP, 40 min incubation; read-out: SGK1 IC50
T1 construct: 125 μM full length SGK1 (Life Technologies Part #PR7358A); purchased Life Technologies PR7358A
T1 sequence (O00141 1-431): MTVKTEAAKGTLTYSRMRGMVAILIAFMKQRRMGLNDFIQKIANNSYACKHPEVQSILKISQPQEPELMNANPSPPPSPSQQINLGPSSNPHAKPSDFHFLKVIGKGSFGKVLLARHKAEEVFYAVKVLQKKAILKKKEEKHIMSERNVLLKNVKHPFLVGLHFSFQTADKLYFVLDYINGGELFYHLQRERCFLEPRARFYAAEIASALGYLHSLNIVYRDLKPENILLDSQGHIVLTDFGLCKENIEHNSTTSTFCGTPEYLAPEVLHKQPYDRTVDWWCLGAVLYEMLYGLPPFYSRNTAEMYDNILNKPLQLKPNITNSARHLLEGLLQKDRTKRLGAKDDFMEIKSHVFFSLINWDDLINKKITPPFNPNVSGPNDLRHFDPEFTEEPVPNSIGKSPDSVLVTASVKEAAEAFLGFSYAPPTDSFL

Point of comparison: `CS(=O)(=O)c1ccc(-c2cc(N3CCC[C@@H](NC(=O)c4cn5ccncc5n4)C3)c3c(N)ncnn23)cc1` [Example 42, (R)-N-(1-(4-amino-7-(4-(methylsulfonyl)phenyl)pyrrolo 2,1-f][1,2,4]triazin-5-yl)piperidin-3-yl)imidazo[1,2-alpyrazine-2-carboxamide, TFA], pIC50 6.73. Against it:
- CS(=O)(=O)c1ccc(-c2cc(N3CCC[C@@H](NC(=O)c4cc[nH]c(=O)c4)C3)c3c(N)ncnn23)cc1 [Example 43, (R)-N-(1-(4-amino-7-(4-(methylsulfonyl)phenyl)pyrrolo[2,1-f][1,2,4]triazin-5-yl)piperidin-3-yl)-2-oxo-1,2-d1Hydropyridine-4-carboxamide, TFA] — 0.37 log units higher, 7.10
- CS(=O)(=O)c1ccc(-c2cc(N3CCC[C@@H](NC(=O)c4cn5c(n4)CCCC5)C3)c3c(N)ncnn23)cc1 [Example 44] — 0.60 log units lower, 6.13
- CS(=O)(=O)c1ccc(-c2cc(N3CCC[C@@H](NC(=O)c4cn5ccsc5n4)C3)c3c(N)ncnn23)cc1 [Example 45, (R)-N-(1-(4-amino-7-(4-(methylsulfonyl)phenyl)pyrrolo [2,1-f][1,2,4]triazin-5-yl)piperidin-3-yl)imidazo[2,1-b]thiazole-6-carboxamide] — 0.82 log units higher, 7.55
- COc1cc(C(=O)N[C@@H]2CCCN(c3cc(-c4ccc(S(C)(=O)=O)cc4)n4ncnc(N)c34)C2)ccn1 [Example 46, (R)-N-(1-(4-amino-7-(4-(methylsulfonyl)phenyl)pyrrolo[2,1-f][1,2,4]triazin-5-yl)piperidin-3-yl)-2-methoxyisonicotinamide, TFA] — 1.27 log units higher, 8.00
- CS(=O)(=O)c1ccc(-c2cc(N3CCC[C@@H](NC(=O)c4ccnc(C#N)c4)C3)c3c(N)ncnn23)cc1 [Example 47, (R)-N-(1-(4-amino-7-(4-(methylsulfonyl)phenyl)pyrrolo[2,1-f][1,2,4]triazin-5-yl)piperidin-3-yl)-2-cyanoisonicotinamide, TFA] — 0.63 log units higher, 7.36
- Cn1cnc(C(=O)N[C@@H]2CCCN(c3cc(-c4ccc(S(C)(=O)=O)cc4)n4ncnc(N)c34)C2)c1 [Example 48, (R)-N-(1-(4-amino-7-(4-(methylsulfonyl)phenyl)pyrrolo[2,1-f][1,2,4]triazin-5-yl)piperidin-3-yl)-1-methyl-1H-imidazole-4-carboxamide] — 0.22 log units lower, 6.51
- COc1ccccc1C(=O)N[C@@H]1CCCN(c2cc(-c3ccc(S(C)(=O)=O)cc3)n3ncnc(N)c23)C1 [Example 49, (R)-N-(1-(4-amino-7-(4-(methylsulfonyl)phenyl)pyrrolo[2,1-f][1,2,4]triazin-5-yl)piperidin-3-yl)-2-methoxybenzamide] — 0.64 log units higher, 7.37
- CS(=O)(=O)c1ccc(-c2cc(N3CCC[C@@H](NC(=O)c4cccnc4)C3)c3c(N)ncnn23)cc1 [Example 50, (R)-N-(1-(4-amino-7-(4-(methylsulfonyl)phenyl)pyrrolo [2,1-f][1,2,4]triazin-5-yl)piperidin-3-yl)nicotinamide, TFA] — 0.43 log units higher, 7.16
- CS(=O)(=O)c1ccc(-c2cc(N3CCC[C@@H](NC(=O)c4cccc(-c5cnco5)c4)C3)c3c(N)ncnn23)cc1 [Example 51, (R)-N-(1-(4-amino-7-(4-(methylsulfonyl)phenyl)pyrrolo[2,1-f][1,2,4]triazin-5-yl)piperidin-3-yl)-3-(oxazol-5-yl)benzamide] — 1.16 log units higher, 7.89
- Cc1ccccc1C(=O)N[C@@H]1CCCN(c2cc(-c3ccc(S(C)(=O)=O)cc3)n3ncnc(N)c23)C1 [Example 52, (R)-N-(1-(4-amino-7-(4-(methylsulfonyl)phenyl)pyrrolo[2,1-f][1,2,4]triazin-5-yl)piperidin-3-yl)-2-methylbenzamide] — within 0.2 log units, 6.68
- CS(=O)(=O)c1ccc(-c2cc(N3CCC[C@@H](NC(=O)c4cccc(F)c4)C3)c3c(N)ncnn23)cc1 [Example 53, (R)-N-(1-(4-amino-7-(4-(methylsulfonyl)phenyl)pyrrolo[2,1-f][1,2,4]triazin-5-yl)piperidin-3-yl)-3-fluorobenzamide] — 1.09 log units higher, 7.82
- CS(=O)(=O)c1ccc(-c2cc(N3CCC[C@@H](NC(=O)c4ccn5ccnc5c4)C3)c3c(N)ncnn23)cc1 [Example 54] — 0.51 log units lower, 6.22
- COc1ccc(OC)c(C(=O)N[C@@H]2CCCN(c3cc(-c4ccc(S(C)(=O)=O)cc4)n4ncnc(N)c34)C2)c1 [Example 56, (R)-N-(1-(4-amino-7-(4-(methylsulfonyl)phenyl)pyrrolo[2,1-f][1,2,4]triazin-5-yl)piperidin-3-yl)-2,5-dimethoxybenzamide, TFA] — 0.42 log units lower, 6.31
- COc1ccc(C)cc1C(=O)N[C@@H]1CCCN(c2cc(-c3ccc(S(C)(=O)=O)cc3)n3ncnc(N)c23)C1 [Example 57, (R)-N-(1-(4-amino-7-(4-(methylsulfonyl)phenyl)pyrrolo[2,1-f][1,2,4]triazin-5-yl)piperidin-3-yl)-2-methoxy-5-methylbenzamide, TFA] — 0.22 log units higher, 6.95
- CS(=O)(=O)c1ccc(-c2cc(N3CCC[C@@H](NC(=O)c4ccccc4OC(F)F)C3)c3c(N)ncnn23)cc1 [Example 58, (R)-N-(1-(4-amino-7-(4-(methylsulfonyl)phenyl)pyrrolo[2,1-f][1,2,4]triazin-5-yl)piperidin-3-yl)-2-(difluoromethoxy) benzamide, TFA] — 0.66 log units lower, 6.07
- CS(=O)(=O)c1ccc(-c2cc(N3CCC[C@@H](NC(=O)c4ccccc4OCCO)C3)c3c(N)ncnn23)cc1 [Example 59, (R)-N-(1-(4-amino-7-(4-(methylsulfonyl)phenyl)pyrrolo[2,1-f][1,2,4]triazin-5-yl)piperidin-3-yl)-2-(2-hydroxyethoxy) benzamide] — 1.27 log units higher, 8.00
- COc1ncccc1C(=O)N[C@@H]1CCCN(c2cc(-c3ccc(S(C)(=O)=O)cc3)n3ncnc(N)c23)C1 [Example 60, (R)-N-(1-(4-amino-7-(4-(methylsulfonyl)phenyl)pyrrolo[2,1-f][1,2,4]triazin-5-yl)piperidin-3-yl)-2-methoxynicotinamide] — within 0.2 log units, 6.89
- CS(=O)(=O)c1ccc(-c2cc(N3CCC[C@@H](NC(=O)c4cnco4)C3)c3c(N)ncnn23)cc1 [Example 61, (R)-N-(1-(4-amino-7-(4-(methylsulfonyl)phenyl)pyrrolo[2,1-f][1,2,4]triazin-5-yl)piperidin-3-yl)oxazole-5-carboxamide] — 0.75 log units higher, 7.48
- CS(=O)(=O)c1ccc(-c2cc(N3CCC[C@@H](NC(=O)c4ccsn4)C3)c3c(N)ncnn23)cc1 [Example 62, (R)-N-(1-(4-amino-7-(4-(methylsulfonyl)phenyl)pyrrolo[2,1-f][1,2,4]triazin-5-yl)piperidin-3-yl)isothiazole-3-carboxamide] — 0.22 log units higher, 6.95
- Cc1cc(C(=O)N[C@@H]2CCCN(c3cc(-c4ccc(S(C)(=O)=O)cc4)n4ncnc(N)c34)C2)on1 [Example 63, (R)-N-(1-(4-amino-7-(4-(methylsulfonyl)phenyl)pyrrolo[2,1-f][1,2,4]triazin-5-yl)piperidin-3-yl)-3-methylisoxazole-5-carboxamide, TFA] — 0.25 log units higher, 6.98
- CS(=O)(=O)c1ccc(-c2cc(N3CCC[C@@H](NC(=O)c4ccno4)C3)c3c(N)ncnn23)cc1 [Example 64, (R)-N-(1-(4-amino-7-(4-(methylsulfonyl)phenyl)pyrrolo[2,1-f][1,2,4]triazin-5-yl)piperidin-3-yl)isoxazole-5-carboxamide] — within 0.2 log units, 6.55
- CC(C)c1cc(C(=O)N[C@@H]2CCCN(c3cc(-c4ccc(S(C)(=O)=O)cc4)n4ncnc(N)c34)C2)on1 [Example 65, (R)-N-(1-(4-amino-7-(4-(methylsulfonyl)phenyl)pyrrolo [2,1-f][1,2,4]triazin-5-yl)piperidin-3-yl)-3-isopropylisoxazole-5-carboxamide] — 0.99 log units higher, 7.72
- CS(=O)(=O)c1ccc(-c2cc(N3CCC[C@@H](NC(=O)c4cncs4)C3)c3c(N)ncnn23)cc1 [Example 66, (R)-N-(1-(4-amino-7-(4-(methylsulfonyl)phenyl)pyrrolo[2,1-f][1,2,4]triazin-5-yl)piperidin-3-yl)thiazole-5-carboxamide] — 0.68 log units higher, 7.41
- COc1cc(C(=O)N[C@@H]2CCCN(c3cc(-c4ccc(S(C)(=O)=O)cc4)n4ncnc(N)c34)C2)c(OC)nn1 [Example 67, (R)-N-(1-(4-amino-7-(4-(methylsulfonyl)phenyl)pyrrolo[2,1-f][1,2,4]triazin-5-yl)piperidin-3-yl)-3,6-dimethoxypyridazine-4-carboxamide] — within 0.2 log units, 6.58
- COc1cnccc1C(=O)N[C@@H]1CCCN(c2cc(-c3ccc(S(C)(=O)=O)cc3)n3ncnc(N)c23)C1 [Example 68, (R)-N-(1-(4-amino-7-(4-(methylsulfonyl)phenyl)pyrrolo[2,1-f][1,2,4]triazin-5-yl)piperidin-3-yl)-3-methoxyisonicotinamide] — within 0.2 log units, 6.54
- CS(=O)(=O)c1ccc(-c2cc(N3CCC[C@@H](NC(=O)c4ccnc(N5CCOCC5)c4)C3)c3c(N)ncnn23)cc1 [Example 69, (R)-N-(1-(4-amino-7-(4-(methylsulfonyl)phenyl)pyrrolo[2,1-f][1,2,4]triazin-5-yl)piperidin-3-yl)-2-morpholinoisonicotinamide] — 0.70 log units higher, 7.43
- CS(=O)(=O)c1ccc(-c2cc(N3CCC[C@@H](NC(=O)c4cnns4)C3)c3c(N)ncnn23)cc1 [Example 70, (R)-N-(1-(4-amino-7-(4-(methylsulfonyl)phenyl)pyrrolo[2,1-f][1,2,4]triazin-5-yl)piperidin-3-yl)-1,2,3-thiadiazole-5-carboxamide] — 0.95 log units higher, 7.68
- COc1cc(C(=O)N[C@@H]2CCCN(c3cc(-c4ccc(S(C)(=O)=O)cc4)n4ncnc(N)c34)C2)sn1 [Example 71, (R)-N-(1-(4-amino-7-(4-(methylsulfonyl)phenyl)pyrrolo[2,1-f][1,2,4]triazin-5-yl)piperidin-3-yl)-3-methoxyisothiazole-5-carboxamide] — 1.49 log units higher, 8.22
